Data from paper PMC4894417, “Quantitative High-Throughput Profiling of Environmental Chemicals and Drugs that Modulate Farnesoid X Receptor” (Scientific Reports, 2014).
Entries after “also recorded” stand apart in the source; their conditions may differ. Where two headings read alike, the source gives them in different places.

How the values were obtained:
human FXR [1] = target: T1, human FXR (Homo sapiens, UniProt Q96RI1); experiment: FXR-bla reporter gene assay, antagonist mode (CDCA-induced transactivation); conditions: for FXR antagonist activity: FXR-bla assay, CDCA-induced
human FXR [2] = target: T1, human FXR; experiment: FXR-bla reporter gene assay, agonist mode (qHTS)
vitamin D receptor (VDR) = vitamin D receptor (VDR) (Homo sapiens, UniProt P11473); experiment: VDR-bla reporter gene assay (agonist and antagonist modes)
FXR-LBD [3] = target: T2, FXR-LBD (Homo sapiens, UniProt Q96RI1); experiment: FXR TR-FRET coactivator recruitment assay, agonist mode; assay type: biochemical; conditions: Table 1; coactivator SRC2-2 recruitment
T2 construct: The glutathione S-transferase (GST)-tagged FXR-LBD protein; purchased Life Technologies
T2 sequence (Q96RI1 262-486 limits assumed): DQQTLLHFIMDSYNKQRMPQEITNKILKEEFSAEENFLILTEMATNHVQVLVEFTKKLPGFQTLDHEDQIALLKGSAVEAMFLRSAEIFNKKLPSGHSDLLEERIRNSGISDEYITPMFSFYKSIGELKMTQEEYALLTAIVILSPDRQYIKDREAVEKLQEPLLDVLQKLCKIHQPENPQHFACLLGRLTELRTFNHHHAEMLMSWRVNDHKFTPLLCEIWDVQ

FXR-LBD [4] = target: T2, FXR-LBD; experiment: FXR TR-FRET coactivator recruitment assay, antagonist mode (50 μM CDCA); assay type: biochemical
[5] = test system: FXR-UAS-bla HEK293T cells; experiment: Cell viability assay (CellTiter Glo) in the same well as FXR-bla; conditions: for Cell viability IC50: Table 1, mean ± SD of 3 experiments
[6] = target: peroxisome proliferator-activated receptor gamma (PPARγ) (Homo sapiens, UniProt P37231); experiment: PPARγ-bla reporter gene assay (agonist and antagonist modes)
androgen receptor (AR) = androgen receptor (AR) (Homo sapiens, UniProt P10275); experiment: AR-bla reporter gene assay (agonist and antagonist modes)
[7] = target: estrogen receptor alpha (ERα) (Homo sapiens, UniProt P03372); experiment: ERα-bla reporter gene assay (agonist and antagonist modes)
[8] = target: peroxisome proliferator-activated receptor delta (PPARδ) (Homo sapiens, UniProt Q03181); experiment: PPARδ-bla reporter gene assay (agonist and antagonist modes)
[9] = Cell viability assay (CellTiter Glo) in the same well as FXR-bla; conditions: human, FXR-UAS-bla HEK293T cells
[10] = Table S1, primary screening, 50 µM CDCA

Sequence of estrogen receptor alpha (ERα) (P03372 with tags, fused parts or gaps limits assumed): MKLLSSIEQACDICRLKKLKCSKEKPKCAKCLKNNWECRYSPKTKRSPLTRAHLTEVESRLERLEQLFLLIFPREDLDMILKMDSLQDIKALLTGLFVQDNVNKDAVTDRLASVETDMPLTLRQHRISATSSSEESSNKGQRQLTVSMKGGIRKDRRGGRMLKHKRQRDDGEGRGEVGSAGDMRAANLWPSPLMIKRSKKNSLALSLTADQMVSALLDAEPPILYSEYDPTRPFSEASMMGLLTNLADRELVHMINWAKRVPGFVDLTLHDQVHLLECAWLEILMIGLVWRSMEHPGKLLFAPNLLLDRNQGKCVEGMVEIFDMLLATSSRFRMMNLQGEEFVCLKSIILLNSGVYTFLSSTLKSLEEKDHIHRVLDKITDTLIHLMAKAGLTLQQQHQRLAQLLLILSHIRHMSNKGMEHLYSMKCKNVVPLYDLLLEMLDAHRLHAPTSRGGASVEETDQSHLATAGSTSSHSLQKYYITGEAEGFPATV
Sequence of peroxisome proliferator-activated receptor delta (PPARδ) (Q03181 with tags, fused parts or gaps limits assumed): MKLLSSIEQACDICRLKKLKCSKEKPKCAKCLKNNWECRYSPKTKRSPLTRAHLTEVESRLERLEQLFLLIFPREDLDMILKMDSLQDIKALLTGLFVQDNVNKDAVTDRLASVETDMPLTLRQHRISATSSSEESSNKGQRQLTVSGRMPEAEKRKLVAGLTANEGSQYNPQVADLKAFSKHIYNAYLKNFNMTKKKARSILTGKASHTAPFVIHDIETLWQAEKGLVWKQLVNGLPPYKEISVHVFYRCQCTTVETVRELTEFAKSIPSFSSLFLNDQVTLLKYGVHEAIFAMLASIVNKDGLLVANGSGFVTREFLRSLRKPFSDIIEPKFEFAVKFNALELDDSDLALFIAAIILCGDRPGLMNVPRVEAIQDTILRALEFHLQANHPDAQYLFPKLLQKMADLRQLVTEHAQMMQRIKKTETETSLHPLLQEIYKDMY
Sequence of peroxisome proliferator-activated receptor gamma (PPARγ) (P37231 with tags, fused parts or gaps limits assumed): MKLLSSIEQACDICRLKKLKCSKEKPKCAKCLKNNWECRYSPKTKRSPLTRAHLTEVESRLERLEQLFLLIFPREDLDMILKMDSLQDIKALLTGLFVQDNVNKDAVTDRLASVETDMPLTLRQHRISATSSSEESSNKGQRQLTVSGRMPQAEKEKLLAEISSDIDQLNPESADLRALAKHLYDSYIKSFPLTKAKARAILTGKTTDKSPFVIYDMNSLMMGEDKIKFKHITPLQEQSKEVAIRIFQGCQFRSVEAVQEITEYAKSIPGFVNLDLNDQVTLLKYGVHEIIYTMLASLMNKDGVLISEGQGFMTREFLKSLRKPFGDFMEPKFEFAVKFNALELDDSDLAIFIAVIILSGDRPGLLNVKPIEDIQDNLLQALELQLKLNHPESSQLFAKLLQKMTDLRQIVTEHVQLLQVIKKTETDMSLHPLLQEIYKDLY
T1 sequence (Q96RI1 with tags, fused parts or gaps limits assumed): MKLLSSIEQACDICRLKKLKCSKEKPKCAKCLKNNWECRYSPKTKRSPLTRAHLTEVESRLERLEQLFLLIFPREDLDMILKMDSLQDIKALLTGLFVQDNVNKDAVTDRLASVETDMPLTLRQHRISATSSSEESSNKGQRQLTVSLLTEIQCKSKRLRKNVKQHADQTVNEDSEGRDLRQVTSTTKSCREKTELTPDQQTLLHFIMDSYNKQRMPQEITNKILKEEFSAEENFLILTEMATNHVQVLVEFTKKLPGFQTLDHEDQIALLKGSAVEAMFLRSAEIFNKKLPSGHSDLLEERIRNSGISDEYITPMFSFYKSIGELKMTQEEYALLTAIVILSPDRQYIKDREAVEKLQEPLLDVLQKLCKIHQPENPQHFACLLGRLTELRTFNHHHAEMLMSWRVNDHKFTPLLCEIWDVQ
Sequence of vitamin D receptor (VDR) (P11473 with tags, fused parts or gaps limits assumed): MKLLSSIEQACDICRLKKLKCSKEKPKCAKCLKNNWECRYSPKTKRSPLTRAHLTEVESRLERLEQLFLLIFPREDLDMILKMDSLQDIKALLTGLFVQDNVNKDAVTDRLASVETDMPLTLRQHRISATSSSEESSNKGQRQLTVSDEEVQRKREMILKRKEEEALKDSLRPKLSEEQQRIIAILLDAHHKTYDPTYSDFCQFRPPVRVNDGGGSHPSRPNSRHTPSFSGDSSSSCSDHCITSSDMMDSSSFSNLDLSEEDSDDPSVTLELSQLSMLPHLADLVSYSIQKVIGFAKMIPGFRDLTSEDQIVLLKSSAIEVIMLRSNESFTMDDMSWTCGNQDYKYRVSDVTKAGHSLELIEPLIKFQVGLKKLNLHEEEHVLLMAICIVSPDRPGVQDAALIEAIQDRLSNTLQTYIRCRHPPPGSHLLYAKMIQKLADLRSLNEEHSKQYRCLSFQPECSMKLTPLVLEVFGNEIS
Sequence of androgen receptor (AR) (P10275 with tags, fused parts or gaps limits assumed): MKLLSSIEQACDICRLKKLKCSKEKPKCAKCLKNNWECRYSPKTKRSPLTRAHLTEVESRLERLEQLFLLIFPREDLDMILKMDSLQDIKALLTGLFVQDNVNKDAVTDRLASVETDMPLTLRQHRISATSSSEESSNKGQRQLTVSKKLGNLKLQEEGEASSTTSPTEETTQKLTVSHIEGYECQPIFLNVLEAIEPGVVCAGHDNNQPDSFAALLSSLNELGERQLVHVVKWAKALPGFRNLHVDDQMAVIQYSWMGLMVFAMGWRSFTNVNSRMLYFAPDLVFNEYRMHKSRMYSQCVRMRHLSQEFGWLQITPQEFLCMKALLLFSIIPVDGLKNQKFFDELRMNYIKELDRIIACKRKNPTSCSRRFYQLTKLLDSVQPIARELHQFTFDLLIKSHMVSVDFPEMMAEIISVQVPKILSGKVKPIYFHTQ

| AR activity (androgen receptor (AR)) | ERα activity [7] | PPARδ activity [8] | EC50 (human FXR [2]) | Structure (SMILES) | VDR activity (vitamin D receptor (VDR)) | Cell viability IC50 [5] | PPARγ activity [6] | also measured |
| --- | --- | --- | --- | --- | --- | --- | --- | --- |
|  | mixed agonist/antagonist response | antagonist response |  | COc1cccc2c1C(=O)c1c(O)c3c(c(O)c1C2=O)C[C@@](O)(C(=O)CO)C[C@@H]3O[C@H]1C[C@H](N)[C@H](O)[C@H](C)O1 [Doxorubicin] | antagonist response | Inactive | antagonist response |  |
|  |  | activated |  | CCOC(=O)C1=C(C)NC(C)=C(C(=O)OC)C1c1cccc(Cl)c1Cl (centres unmarked) [Felodipine] |  |  |  |  |
|  | antagonized |  |  | COC1=CC(=O)C[C@@H](C)[C@]12Oc1c(Cl)c(OC)cc(OC)c1C2=O [Griseofulvin] | inhibiting β-lactamase expression |  | inhibiting β-lactamase expression | IC50 (human FXR [1]): 42.3 ± 17.3 µM; FXR antagonist activity (human FXR [1]): antagonistic effects; also recorded: inhibiting β-lactamase expression; FXR antagonist mode Efficacy (human FXR [1]; [10]): 42 ± 7%; FXR agonist mode EC50 (human FXR [2]; Table S1, primary screening): Inactive; Cytotoxicity IC50 ([5]; Table S1, primary screening): Inactive |
| mixed agonist/antagonist response | mixed agonist/antagonist response | antagonist response | 1.37 ± 0.38 µM | CC(=O)[C@]1(O)Cc2c(O)c3c(c(O)c2[C@@H](O[C@H]2C[C@H](N)[C@H](O)[C@H](C)O2)C1)C(=O)c1ccccc1C3=O [Idarubicin] | antagonist response | Inactive | antagonist response | FXR-bla, antagonist Efficacy (human FXR [1]; Table 1, inhibition as percent of positive control (guggulsterone), 50 μM CDCA): 107 ± 3%; FXR antagonist Efficacy (human FXR [1]; Table S3, 50 µM CDCA): 105 ± 11%; FXR-bla, agonist Efficacy (human FXR [2]; Table 1, activation as percent of positive control (CDCA 100%), mean ± SD of 3): 42 ± 16%; FXR agonist EC50 (human FXR [2]; Table S3, FXR-active drugs): Inactive; FXR TR-FRET, agonist EC50 (FXR-LBD [3]): Inactive; FXR TR-FRET, antagonist Efficacy (FXR-LBD [4]; Table 1, in the presence of 50 μM CDCA): 162 ± 41% |
| activated | activated | activated | 23.5 ± 10.1 µM | CCOC(=O)C1=C(C)NC(C)=C(C(=O)OCC)C1c1ccccc1/C=C/C(=O)OC(C)(C)C [Lacidipine] |  |  |  | IC50 (human FXR [1]): 32.3 ± 2.1 µM; FXR antagonist mode Efficacy (human FXR [1]; [10]): 55 ± 20%; FXR agonist activity (human FXR [2]; FXR-bla assay): activated; FXR agonist mode Efficacy (human FXR [2]; Table S1, primary screening, CDCA 100%): 70 ± 41%; Cytotoxicity Efficacy ([5]; Table S1, primary screening): 56 ± 39%; IC50 at 16 h [9]: 54.5 ± 39.5 µM |
| activated | activated | activated |  | COC(=O)C1=C(C)NC(COC(N)=O)=C(C(=O)OC(C)C)C1c1cccc(Cl)c1Cl (centres unmarked) [Lemildipine] |  |  |  |  |

| Structure (SMILES) | AR activity (androgen receptor (AR)) | ERα activity [7] | PPARδ activity [8] | EC50 (human FXR [2]) | VDR activity (vitamin D receptor (VDR)) | Cell viability IC50 [5] | PPARγ activity [6] | also measured |
| --- | --- | --- | --- | --- | --- | --- | --- | --- |
| COc1cc2c(c(OC)c1OC)-c1ccc(OC)c(=O)cc1[C@@H](NC(C)=O)CC2 [Colchicine] | inhibiting β-lactamase expression | antagonized |  |  | inhibiting β-lactamase expression | Inactive | inhibiting β-lactamase expression | FXR antagonist Efficacy (human FXR [1]): 55 ± 11%; FXR antagonist activity (human FXR [1]): inhibiting β-lactamase expression; IC50 (human FXR [1]; FXR-bla, antagonist IC50): 0.03 µM; IC50 (human FXR [1]; IC50, FXR-bla antagonist mode, Figure 4, primary screen): 0.011 µM; FXR-bla, agonist EC50 (human FXR [2]; Table 1, confirmed compounds, mean ± SD of 3 experiments): Inactive; FXR TR-FRET, agonist EC50 (FXR-LBD [3]): Inactive; IC50 (FXR-LBD [4]): 0.03 µM |
| COc1cccc2c1C(=O)c1c(O)c3c(c(O)c1C2=O)C[C@@](O)(C(C)=O)C[C@@H]3O[C@H]1C[C@H](N)[C@H](O)[C@H](C)O1 [Daunorubicin] |  |  | antagonist response |  | antagonist response |  | antagonist response |  |
| COc1cccc2c1C(=O)c1c(O)c3c(c(O)c1C2=O)C[C@@](O)(C(=O)CO)C[C@@H]3O[C@H]1C[C@H](N)[C@H](O[C@@H]2CCCCO2)[C@H](C)O1 [Pirarubicin] | mixed agonist/antagonist response | mixed agonist/antagonist response | antagonist response | 16.9 ± 11 µM | antagonist response |  | antagonist response | FXR antagonist mode Efficacy (human FXR [1]): 60 ± 23%; IC50 (human FXR [1]; FXR antagonist mode IC50): 21.3 ± 15.6 µM; FXR agonist mode Efficacy (human FXR [2]): 20 ± 9%; Cytotoxicity IC50 ([5]; Table S1, primary screening): Inactive |
